Oc1ccccc1C=Nc1c(F)cccc1F
solubility (mole fraction)
Settings | 273.15 K | 278.15 K | 283.15 K | 288.15 K | 293.15 K | 298.15 K | 303.15 K
in 1,2-dichloroethane | 0.105 | 0.122 | 0.142 | 0.164 | 0.193 | 0.234 | 0.277
in THF | 0.161 | 0.181 | 0.2 | 0.23 | 0.258 | 0.293 | 0.338
in acetonitrile | 0.0134 | 0.0191 | 0.0272 | 0.0389 | 0.0547 | 0.0768 | 0.106
in chloroform | 0.138 | 0.154 | 0.177 | 0.203 | 0.232 | 0.27 | 0.313
in dichloromethane | 0.122 | 0.139 | 0.161 | 0.185 | 0.218 | 0.252 | 0.295
in ethanol | 0.00496 | 0.00633 | 0.00819 | 0.0103 | 0.0128 | 0.0157 | 0.0192
in ethyl acetate | 0.0896 | 0.104 | 0.124 | 0.146 | 0.173 | 0.204 | 0.248
in isopropanol | 0.008 | 0.0095 | 0.0114 | 0.0136 | 0.0164 | 0.0195 | 0.0231
in methanol | 0.00299 | 0.00392 | 0.00512 | 0.00667 | 0.00873 | 0.0111 | 0.0141
in n-propanol | 0.00636 | 0.00779 | 0.00958 | 0.0118 | 0.0146 | 0.0177 | 0.0212
in toluene | 0.0871 | 0.105 | 0.126 | 0.149 | 0.176 | 0.213 | 0.251

— BigSolDB 2.1
